Assay results reported in article PMC10608878, “Synthesis and Antiproliferative Activity of 2,6-Disubstituted Imidazo[4,5-b]pyridines Prepared by Suzuki Cross Coupling” (Molecules, 2023).
Where a name gives a salt, the structure may show the parent alone.

How the values were obtained:
[1] = tested on: HL-60 acute myeloid leukemia cells; assay: Antiproliferative activity, HL-60 cells; type: cell-based, human; conditions: HL-60, 72 h incubation
Method: (§1) All prepared imidazo[4,5-b]pyridines were tested for their antiproliferative activity against the following cancer cell lines: LN-229—glioblastoma, Capan-1—pancreatic adenocarcinoma, HCT-116—colorectal carcinoma, NCI-H460—lung carcinoma, DND-41—acute lymphoblastic leukemia, HL-60—acute myeloid leukemia, K-562—chronic myeloid leukemia, and Z-138—non-Hodgkin lymphoma cancer cells. An overview of the results is presented in Table 2 as IC50 values (50% inhibitory concentration). An established antitumor drug, etoposide (ETO), was included for comparison.
(§2) For proliferation assays, the human cancer cell lines used in this manuscript, namely Capan-1, HCT-116, NCI-H460, LN-229, HL-60, K-562, and Z-138, were acquired from the American Type Culture Collection (ATCC, Manassas, VA, USA), while the DND-41 cell line was purchased from the Deutsche Sammlung von Mikroorganismen und Zellkulturen (DSMZ Leibniz-Institut, Braunschweig, Germany). Culture media were purchased from Gibco (Gibco Life Technologies, Merelbeke, Belgium) and supplemented with 10% fetal bovine serum (HyClone, Cytiva, Marlborough, MA, USA). Adherent cell lines LN-229, HCT-116, NCI-H460, and Capan-1 cells were seeded in 384-well tissue culture plates (Greiner, Kremsmünster, Austria) at a density between 500 and 1500 cells per well (500 cells per well for Capan-1, 1000 cells per well for LN-229 and HCT-116, and 1500 cells per well for NCI-H460). The cells were treated with seven different concentrations of the test compounds in a 5-fold dilution series ranging from 100 to 0.006 µM after overnight incubation. Suspension cell lines HL-60, K-562, Z-138, and DND-41 were seeded at densities ranging from 2500 to 5500 cells per well (2500 cells per well for HL-60, K-562, and Z-138, and 5500 cells per well for DND-41) in 384-well culture plates containing the test compounds at the same concentration points. All conditions were incubated for 72 h before measuring the cell viability by the CellTiter 96® AQueous Non-Radioactive Cell Proliferation Assay (Promega, Madison, WA, USA) according to the manufacturer’s instructions. After 3 h, absorbance of all conditions was measured at 490 nm using a SpectraMax Plus 384 (Molecular Devices, San Jose, CA, USA), and the OD values were used to calculate the 50% inhibitory concentration (IC50). Compounds were tested in two independent experiments.

[2] = tested on: NCI-H460 lung carcinoma cells; assay: Antiproliferative activity, NCI-H460 cells; type: cell-based, human; conditions: NCI-H460, 72 h incubation
Method: as §1, §2

[3] = tested on: Capan-1 pancreatic adenocarcinoma cells; assay: Antiproliferative activity, Capan-1 cells; type: cell-based, human; conditions: Capan-1, 72 h incubation
Method: as §1, §2

[4] = tested on: DND-41 acute lymphoblastic leukemia cells; assay: Antiproliferative activity, DND-41 cells; type: cell-based, human; conditions: DND-41, 72 h incubation
Method: as §1, §2

[5] = tested on: Z-138 non-Hodgkin lymphoma cells; assay: Antiproliferative activity, Z-138 cells; type: cell-based, human; conditions: Z-138, 72 h incubation
Method: as §1, §2

[6] = tested on: LN-229 glioblastoma cells; assay: Antiproliferative activity, LN-229 cells; type: cell-based, human; conditions: LN-229, 72 h incubation
Method: as §1, §2

[7] = tested on: K-562 chronic myeloid leukemia cells; assay: Antiproliferative activity, K-562 cells; type: cell-based, human; conditions: K-562, 72 h incubation
Method: as §1, §2

[8] = tested on: HCT-116 colorectal carcinoma cells; assay: Antiproliferative activity, HCT-116 cells; type: cell-based, human; conditions: HCT-116, 72 h incubation
Method: as §1, §2

[9] = tested on: influenza A/H1N1 (A/Ned/378/05); assay: Antiviral CPE assay, influenza A/H1N1 in MDCK; type: cell-based; conditions: Influenza A virus, MDCK host cells
[10] = tested on: influenza A/H3N2 (A/HK/7/87); assay: Antiviral CPE assay, influenza A/H3N2 in MDCK; type: cell-based; conditions: Influenza A virus, MDCK host cells
[11] = tested on: influenza B (B/Ned/537/05); assay: Antiviral CPE assay, influenza B in MDCK; type: cell-based; conditions: Influenza B virus; MDCK host cells
in vitro [12] = conditions: dog
Sindbis virus (SINDV) = assay: Antiviral CPE assay, SINDV in VeroE6; type: cell-based; conditions: Sindbis virus, Vero C1008; VeroE6 host cells
in vitro [13] = conditions: African green monkey
yellow fever virus (YFV) = assay: microbe, parasite or virus in culture; type: cell-based; conditions: Yellow fever virus, Vero C1008, read-out: Antiviral Activity (EC50) YFV VeroE6
[14] = tested on: Semliki Forest virus (SFV); assay: Antiviral CPE assay, SFV in VeroE6; type: cell-based; conditions: Semliki Forest virus, Vero C1008; VeroE6 host cells
Zika virus (ZIKV) = assay: Antiviral CPE assay, ZIKV in VeroE6; type: cell-based; conditions: Zika virus, Vero C1008; VeroE6 host cells
[15] = tested on: respiratory syncytial virus (RSV) A; assay: Antiviral CPE assay, RSV in Hep-2; type: cell-based; conditions: human respiratory syncytial virus; Hep-2 host cells
[16] = tested on: human coronavirus HCoV-229E; assay: organism not typed; type: cell-based, human coronavirus 229E; conditions: HEL 299 host cells; read-out: Antiviral Activity (EC50) HCoV 229E HEL 299
[17] = tested on: human coronavirus HCoV-NL63; assay: Antiviral CPE assay, HCoV-NL63 in Hep3B; type: cell-based; conditions: Hep3B host cells
[18] = tested on: human coronavirus HCoV-OC43; assay: Antiviral CPE assay, HCoV-OC43 in HEL 299; type: cell-based; conditions: Betacoronavirus 1, OC43; HEL 299 host cells
[19] = tested on: herpes simplex virus-1 (HSV-1 KOS); assay: Antiviral CPE assay, HSV-1 in HEL 299; type: cell-based; conditions: Human alphaherpesvirus 1; HEL 299 host cells

Compound	IC50 ([1]; Homo sapiens, HL-60, 72 h)	IC50 ([2]; Homo sapiens, NCI-H460, 72 h)	IC50 ([3]; Homo sapiens, CAPAN-1, 72 h)	IC50 ([4]; Homo sapiens, DND41, 72 h)	IC50 ([5]; Homo sapiens, Z-138, 72 h)	IC50 ([6]; Homo sapiens, LN-229, 72 h)	IC50 ([7]; Homo sapiens, K562, 72 h)	IC50 ([8]; Homo sapiens, HCT-116, 72 h)	further results
O=[N+]([O-])c1ccc(-c2cnc3[nH]c(-c4ccccc4)nc3c2)cc1 [Compound 16, 6-(4-nitrophenyl)-2-phenyl-3H-imidazo[4,5-b]pyridine]	79 µM	> 100 µM	> 100 µM	> 100 µM	65.2 µM	> 100 µM	> 100 µM	> 100 µM	
CC(N)C12CC3CC(CC(C3)C1)C2 (stereo not shown) [Rimantadin, rimantadine]									EC50 [9]: 0.08 µM; EC50 [10]: 0.06 µM; EC50 [11]: > 100 µM; CC50 (in vitro [12]): > 100 µM
COc1ccc(-c2cnc3c(c2)nc(-c2ccccc2)n3C)cc1 [Compound 20, 6-(4-methoxyphenyl)-3-methyl-2-phenyl-3H-imidazo [4,5-b]pyridine]	62.5 µM	> 100 µM	> 100 µM	> 100 µM	86 µM	> 100 µM	> 100 µM	> 100 µM	
Cn1c(-c2ccccc2)nc2cc(-c3ccc(N)cc3)cnc21 [Compound 24, 4-(3-methyl-2-phenyl-3H-imidazo [4,5-b]pyridin-6-yl)aniline]	36.2 µM	81.6 µM	63 µM	78.5 µM		55.8 µM	62.2 µM	> 100 µM	IC50 [5]: 54.4 µM
Cn1c(-c2ccccc2)nc2cc(-c3ccc([N+](=O)[O-])cc3)cnc21 [Compound 23, 3-methyl-6-(4-nitrophenyl)-2-phenyl-3H-imidazo [4,5-b]pyridine]	89.9 µM	> 100 µM	> 100 µM	> 100 µM	72.9 µM	> 100 µM	> 100 µM	> 100 µM	
COc1cc([C@@H]2c3cc4c(cc3[C@@H](O[C@@H]3O[C@@H]5CO[C@@H](C)O[C@H]5[C@H](O)[C@H]3O)[C@H]3COC(=O)[C@H]23)OCO4)cc(OC)c1O [ETO, etoposide, reference compound]	0.37 µM	4.6 µM	0.1 µM	0.6 µM	0.05 µM	1.37 µM	2.35 µM	2.55 µM	
CCN(CC)CCCC(C)Nc1ccnc2cc(Cl)ccc12 (stereo not shown) [Chloroquine, chloroquine]									EC50 (Sindbis virus (SINDV)): 8 µM; CC50 (in vitro [13]): 55.8 µM; EC50 (yellow fever virus (YFV)): > 100 µM; EC50 [14]: > 100 µM; EC50 (Zika virus (ZIKV)): 13.4 µM
Cn1c(-c2ccccc2)nc2cc(-c3ccc(N)cc3)cnc21 [Compound 25, 4-(3-methyl-2-phenyl-3H-imidazo [4,5-b]pyridin-6-yl)aniline hydrochloride]									IC50 [1]: 23.7 µM; IC50 [2]: > 100 µM; IC50 [3]: 67.3 µM; IC50 [4]: > 100 µM; IC50 [5]: 25.5 µM; IC50 [6]: 59.1 µM; IC50 [7]: 39 µM; IC50 [8]: 56.2 µM
c1ccc(-c2cnc3[nH]c(-c4ccccc4)nc3c2)cc1 [Compound 12, 2.6-diphenyl-3H-imidazo[4,5-b]pyridine]	52.3 µM	> 100 µM	35.3 µM	> 100 µM	30.1 µM	> 100 µM	> 100 µM	> 100 µM	
COc1c(C)c2c(c(O)c1C/C=C(\C)CCC(=O)O)C(=O)OC2 [Mycoph. acid, mycophenolic acid]									EC50 (Sindbis virus (SINDV)): > 100 µM; CC50 (in vitro [13]): > 100 µM; EC50 (yellow fever virus (YFV)): 0.6 µM; EC50 [14]: > 100 µM; EC50 [15]: 0.8 µM; EC50 (Zika virus (ZIKV)): 25.2 µM
Nc1ccc(-c2cnc3[nH]c(-c4ccccc4)nc3c2)cc1 [Compound 18, 4-(2-phenyl-3H-imidazo [4,5-b]pyridin-6-yl)aniline hydrochloride]									IC50 [1]: 46.1 µM; IC50 [2]: > 100 µM; IC50 [3]: 7.29 µM; IC50 [4]: 70.9 µM; IC50 [5]: 34.8 µM; IC50 [6]: 63.6 µM; IC50 [7]: 84.7 µM; IC50 [8]: > 100 µM
Nc1ccc(-c2cnc3[nH]c(-c4ccccc4)nc3c2)cc1 [Compound 17, 4-(2-phenyl-3H-imidazo [4,5-b]pyridin-6-yl)aniline]	41.5 µM	> 100 µM		76.4 µM	40.9 µM	73 µM	83.2 µM	> 100 µM	IC50 [3]: 26.6 µM
Cn1c(-c2ccccc2)nc2cc(-c3ccc(C#N)cc3)cnc21 [Compound 21, 4-(3-methyl-2-phenyl-3H-imidazo [4,5-b]pyridin-6-yl)benzonitrile]	83.1 µM	> 100 µM	> 100 µM	> 100 µM	62.8 µM	> 100 µM	> 100 µM	> 100 µM	
CC(=O)N[C@H]1[C@H]([C@H](O)[C@H](O)CO)OC(C(=O)O)=C[C@@H]1N=C(N)N [Zanamivir, zanamivir]									EC50 [9]: 0.3 µM; EC50 [10]: 68.1 µM; EC50 [11]: 0.5 µM; CC50 (in vitro [12]): > 100 µM
NC(=O)c1ncn([C@@H]2O[C@H](CO)[C@@H](O)[C@H]2O)n1 [Ribavirin, ribavirin]									EC50 [9]: 6.6 µM; EC50 [16]: 83.3 µM; EC50 [17]: 45.8 µM; CC50 (in vitro [13]): > 250 µM; EC50 [18]: 97.6 µM; EC50 [10]: 12.3 µM; EC50 [11]: 5.2 µM; EC50 (yellow fever virus (YFV)): 235 µM; EC50 [15]: 35.7 µM; EC50 [19]: 217 µM; CC50 (in vitro [12]): > 250 µM
COc1ccc(-c2cnc3[nH]c(-c4ccccc4)nc3c2)cc1 [Compound 14, 6-(4-methoxyphenyl)-2-phenyl-3H-imidazo [4,5-b]pyridine]	69.4 µM	> 100 µM	> 100 µM	> 100 µM	> 100 µM	> 100 µM	> 100 µM	> 100 µM	
